Data from PubChem BioAssay AID179 (DTP/NCI, 2004).
The source made the active and inactive calls.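 The calls were made as follows: active = compounds giving half or more protection of infected cells from virus-caused growth loss, again on retest; inactive = the rest.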 Where a SMILES comes first, the peptide text is derived from it. [ ]: non-standard residue; d: D form. The star is where a group is joined. NMeF = CN[CH](Cc1ccccc1)C(=O)O; NMeV = CN[CH](C(=O)O)C(C)C; Boc = CC(C)(C)OC(=O)*

System: CEM cells HIV-1 protection, formazan growth assay
Test: NCI AIDS Antiviral Assay
Details: for IC50: measured here: growth of uninfected CEM cells
How it was run: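 CEM (human) cells, HIV-1 infected vs uninfected, 5-point dosing, formazan growth read-out. Retest threshold 50% protection.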

## O=c1c2c3c(sc2nc2n1NC=NN2)CCCC3
  EC50: > 20 µM
  IC50: 8.51 µM

## Nc1ccccc1S(=O)(=O)N(CC(=O)O)c1ccccc1
  outcome: inactive

## O=c1ccccc2cccc(O)c12
  outcome: inactive

## O=C(O)c1ccc(NC(=O)C2C(=O)C(=O)N(c3ccc(C(=O)O)cc3)C2=O)cc1 (stereo not drawn)
  EC50: > 47.9 µM
  IC50: > 47.9 µM

## CCCCCCCCCCCC1N=C(N)NC(CCCO)=C1C(=O)OC (stereo not drawn)
  EC50: > 200 µM
  IC50: 3.47 µM

## Cc1ccc2c(c1)Nc1ccccc1P2(=O)O
  EC50: > 200 µM
  IC50: > 200 µM

## S=C1NC2=C(CSC/C2=C\c2ccc(Cl)cc2)C(c2ccc(Cl)cc2)N1 (stereo not drawn)
  EC50: > 200 µM
  IC50: 15.8 µM

## CC(C)(C)[Si](C)(C)O[C@@H](C(=O)OC1C=CCCC1)[C@@H](NC(=O)c1ccccc1)c1ccccc1 (stereo partly drawn)
  EC50: > 200 µM
  IC50: 12.3 µM

## COc1ccc(C(C#N)NNC(=O)c2ccccc2O)cc1OC (stereo not drawn)
  EC50: > 79.4 µM
  IC50: 4.07 µM

## S=C(Cc1ccc2c(c1)Sc1ccccc1O2)N1CCOCC1
  EC50: > 200 µM
  IC50: 27.5 µM

## COc1ccc(NS(=O)c2ccc(-c3ccccc3)cc2)cc1 (stereo not drawn)
  EC50: > 200 µM
  IC50: 14.8 µM

## CC12CCCCC1C(=O)C2(Cl)Cl (stereo not drawn)
  outcome: inactive

## O=C1OC[C@H](Cc2ccccc2)N1C(=O)[C@H]1NC(=S)OC1Cc1ccc(OCc2ccccc2)cc1 (stereo partly drawn)
  outcome: inactive

## CCc1ccccc1N1CCN(C(=O)c2cc(OC)c(OC)c(OC)c2)CC1
  EC50: > 93.3 µM
  IC50: 0.0295 µM

## CCOC(=O)C(NC(=O)CC)(N1CCN(c2cc3c(cc2F)c(=O)c(C(=O)O)cn3C2CC2)CC1)C(F)(F)F (stereo not drawn)
  EC50: > 200 µM
  IC50: 126 µM

## O=S(=O)(Sc1ccccc1)C(c1ccccc1)c1ccccc1
  EC50: > 132 µM
  IC50: 21.4 µM

## CC1=NN(c2ccc(S(=O)(=O)O)cc2)/C(=N/NC(N)=S)C1
  EC50: > 759 µM
  IC50: 427 µM

## COc1nc(N)c(N=O)c(=O)n1C
  outcome: inactive

## O=C(O)c1ccc[n+](CC(=O)c2ccc(O)c(O)c2)c1
  EC50: 0.0631 µM
  IC50: > 200 µM

## CS(=O)(=O)CS(=O)CS(=O)CS(=O)CC(NC(=O)CCC(N)C(=O)O)C(=O)O (stereo not drawn)
  EC50: > 513 µM
  IC50: > 513 µM

## O=C1Oc2ccccc2C(=O)/C1=C1/C=C(c2ccccc2)SS1
  EC50: > 200 µM
  IC50: > 200 µM

## COc1ccc(C(O)C(=O)c2nc3ccc(Cl)cc3[nH]c2=O)cc1 (stereo not drawn)
  outcome: inactive

## COc1ccccc1N1CCN(Cn2c(=O)oc3cccnc32)CC1
  EC50: > 200 µM
  IC50: 60.3 µM

## CCOC(=O)C(=O)Nc1c(F)cc(F)cc1Br
  EC50: > 813 µM
  IC50: > 813 µM

## O/N=C(/C(Cl)=C(Cl)Cl)C(Cl)Cl
  EC50: > 200 µM
  IC50: 33.1 µM

## NC(=S)NN=C1Cc2ccccc2C1
  EC50: > 200 µM
  IC50: 145 µM

## COc1cc2c3c(c1)ncn3C(=O)CCS2
  EC50: > 200 µM
  IC50: > 200 µM

## S=C1Cc2cc3ccccc3nc2-c2ccccc2N1
  EC50: > 100 µM
  IC50: > 100 µM

## C=CCN(CC=C)c1nc(Cl)nc(Cl)n1
  EC50: > 200 µM
  IC50: > 200 µM

## CO/C(=N\N=C\c1ccc(OC)c(OC)c1)c1ccncc1
  EC50: > 437 µM
  IC50: 295 µM

## Cc1ccc(C2SCC(=O)N2c2ccc(-c3ccc(-n4c(-c5ccccc5)nc5ccccc5c4=O)cc3)cc2)cc1 (stereo not drawn)
  EC50: > 191 µM
  IC50: 35.5 µM

## Cc1nc(N)nc(N)c1-c1ccc(Cl)c(Cl)c1
  EC50: > 200 µM

## CCOC(=O)C(NC(C)=O)(Nc1ccc(S(N)(=O)=O)cc1)C(F)(F)F (stereo not drawn)
  EC50: > 200 µM
  IC50: > 200 µM

## c1ccc(CSc2ccc3nncc(SCc4ccccc4)c3c2)cc1
  EC50: > 57.5 µM
  IC50: > 57.5 µM

## Cc1nnc(N)nc1C/C=C/C(Sc1ccc(Cl)cc1)c1ccccc1 (stereo not drawn)
  EC50: > 9.77 µM
  IC50: 3.98 µM

## Cc1nc2c(=O)[nH]ncc2[nH]1
  EC50: > 200 µM
  IC50: > 200 µM

## COc1ccc(CNc2nc3ccccc3nc2C(=O)O)cc1
  EC50: > 200 µM
  IC50: 34.7 µM

## CC(C)C(NC(=O)OC(C)(C)C)C(=O)N(C)C(Cc1ccccc1)C(=O)N(C)C(C(=O)O)C(C)C (stereo not drawn) (Boc-Val-[NMeF]-[NMeV]-OH; configuration not given here)
  EC50: > 200 µM
  IC50: > 200 µM

## CCCCN(C)C(=O)C1=C(C)NC(C)=C(C(=O)N(C)CCCC)C1
  EC50: > 200 µM
  IC50: 102 µM

## CCSc1nc(-c2ccc(OC)cc2)c(C#N)c(=O)n1C1OCC(OC(C)=O)C(OC(C)=O)C1OC(C)=O (stereo not drawn)
  EC50: > 200 µM
  IC50: > 200 µM

## O=C(NC(=O)c1cn(CCN(CCO)C(=O)NCCCCCCNC(=O)N(CCO)CCn2cc(C(=O)NC(=O)OCc3ccccc3)c(=O)[nH]c2=O)c(=O)[nH]c1=O)OCc1ccccc1
  outcome: inactive

## COc1cc2nncc(SCc3ccccc3Cl)c2cc1OC
  EC50: 1.45 µM
  IC50: 51.3 µM

## O=C1NC2(CCCC2)C(=O)N2CCCC12 (stereo not drawn)
  EC50: > 129 µM
  IC50: > 129 µM

## CC12CCC(c3no[n+]([O-])c31)C2(C)C (stereo not drawn)
  EC50: > 200 µM
  IC50: 110 µM

## CO[C@H]1CC[C@@]2(C)C(CC[C@@]3(C)CC4=C[C@H]5C(C)(CO)C(=O)CCC5(C)[C@H]4CCC32)C1(C)C (stereo partly drawn)
  EC50: > 100 µM
  IC50: > 100 µM

## COc1ccc(N2C(=O)[C@H]3CC(C)c4c([nH]c5ccccc45)[C@H]3C2=O)cc1 (stereo partly drawn)
  EC50: > 41.7 µM
  IC50: 0.871 µM

## CC(=O)C1CCC2[C@@H]3CCC4c5nn(-c6ccccc6)nc5CC[C@]4(C)C3CC[C@]12C (stereo partly drawn)
  outcome: inactive

## O=S(=O)(O)c1cc[c]([Sb](=[O])([OH])[OH])cc1
  EC50: 0.661 µM
  IC50: 398 µM

## C#CCN(C)Cc1ccccc1
  EC50: > 200 µM
  IC50: > 200 µM

## Nc1nc(N)c(-c2ccccc2)c(C(=O)Nc2ccc(Cl)c(Cl)c2)n1
  EC50: > 479 µM

## CCOC(CN=C=S)OCC
  EC50: > 200 µM
  IC50: 27.5 µM

## CCCCCCCCCCCCCCCCCCOC(COP(=O)(O)OCC1OC(n2cc(F)c(=O)[nH]c2=O)CC1O)COP(=O)(O)OCC1OC(n2cc(C)c(=O)[nH]c2=O)CC1N=[N+]=[N-] (stereo not drawn)
  EC50: > 5.75 µM
  IC50: 0.0501 µM

## Cn1c(-c2ccccc2)cc(-c2cccs2)c1-c1ccsc1
  EC50: > 200 µM
  IC50: 182 µM

## O=C(NNC(=S)Nc1ccccc1)C12CC3CC(CC(C3)C1)C2
  EC50: > 200 µM
  IC50: 34.7 µM

## O=C1CC(c2c(-c3ccccc3)[nH]c3ccccc23)C(=O)N1 (stereo not drawn)
  outcome: inactive

## CCOc1ccccc1N=NC1C(=O)N(C(=O)CC(=O)Nc2ccccc2C)N=C1C (stereo not drawn)
  EC50: > 200 µM
  IC50: > 200 µM

## COc1cc([C@@H]2C3C(=O)c4ccccc4C3[C@@H](c3cc(OC)c(OC)c(OC)c3)C23Cc2ccccc2C3=O)cc(OC)c1OC (stereo partly drawn)
  EC50: > 200 µM
  IC50: 31.6 µM

## CC(=O)N(CN1C(=O)CCC1C(=O)O)c1ccccc1 (stereo not drawn)
  outcome: inactive

## Cc1cc(C)c(C(=O)c2ccccc2C(=O)O)c(C)c1
  EC50: > 200 µM
  IC50: > 200 µM

## CC12CCC(CC(=O)/C1=C(/Br)I)C2(C)C (stereo not drawn)
  EC50: > 200 µM
  IC50: 36.3 µM

## CCCN(CCC)C1=Nc2ccccc2-n2cnnc2C1
  EC50: > 200 µM
  IC50: 178 µM

## Cc1oc2c(c1C)S(=O)(=O)C(C#N)C(c1ccccc1)N2 (stereo not drawn)
  EC50: > 200 µM
  IC50: 126 µM

## NNC(=S)N/N=C(/C(=O)Nc1ccc(Cl)c(Cl)c1)C(C1OC(=O)c2ccccc21)[N+](=O)[O-] (stereo not drawn)
  EC50: > 501 µM
  IC50: 257 µM

## OCc1ccc2c(c1)CC1(C2)Cc2cc3c(cc2C1O)CCC3 (stereo not drawn)
  EC50: > 200 µM
  IC50: 1.82 µM

## CCOC(=O)c1sc(SSc2nc(C)c(C(=O)OCC)s2)nc1C
  EC50: > 200 µM
  IC50: > 200 µM
